# In patent US20240317791A1 (priority 2021, published 2024):
# Where two headings read alike, the source gives them in different places.
# Legend:
# [1] = system: Sporothrix schenkii; conditions: 1 strain of Sporothrix schenkii; cited from earlier work
# [2] = system: Penicillium spp.; conditions: 5 strains of Penicillium spp.; cited from earlier work
# [3] = system: Candida auris; test: MIC determination against clinical isolates of Candida auris (CLSI M27, 4th edition); format: cell-based; conditions: Candidozyma auris, read-out: MIC values
# Description: (§1) MIC: Minimum Inhibitory Concentration (MIC) is defined as the lowest concentration of an antimicrobial ingredient that is bacteriostatic.
# (§2) Testing has been performed in triplicates for each isolate.
# [4] = system: Rhizopus oryzae; test: MIC determination against clinical isolates of the order Mucorales (CLSI M27, 4th edition); format: cell-based; conditions: Rhizopus arrhizus, strain 2086, clinical strain
# Description: as §1, §2
# [5] = system: Rhizopus microsporus; test: as above; format: cell-based
# Description: as §1, §2
# [6] = rats, single intravenous administration; amcipatricin diascorbate 1.25 mg/kg, amphotericin B 1 mg/kg; cited from earlier work
# [7] = system: Rhizopus oryzae; conditions: 4 strains of Rhizopus oryzae; cited from earlier work
# [8] = system: Mucor circinelloides; test: MIC determination against ATCC and clinical isolates of the order Mucorales (CLSI M27, 4th edition); format: cell-based
# Description: as §1, §2
# [9] = system: Aspergillus spp.; conditions: 13 strains of Aspergillus spp.; cited from earlier work
# [10] = system: Microsporum spp.; conditions: 2 strains of Microsporum spp; cited from earlier work
# [11] = system: Trichophyton spp.; conditions: 7 strains of Trichophyton spp.; cited from earlier work
# [12] = strain I.2 (No 2), clade I/India
# [13] = strain I.3 (No 3), clade I/India
# [14] = strain I.4 (No 4), clade I/India
# [15] = strain II.1 (No 5), clade II/Japan
# [16] = strain II.2 (No 1), clade II/India
# [17] = strain III.7 (No 12), clade III/Switzerland
# [18] = strain III.8 (No 13), clade III/Israel
# [19] = strain III.9 (No 14), clade III/Israel
# [20] = strain IV.1 (No 15), clade IV/Colombia
# [21] = strain IV.10 (No 7), clade IV/Israel
# [22] = strain IV.11 (No 8), clade IV/Israel
# [23] = strain IV.12 (No 9), clade IV/Israel
# [24] = strain IV.13 (No 10), clade IV/Israel
# [25] = strain IV.14 (No 11), clade IV/Israel
# [26] = strain IV.2 (No 16), clade IV/Colombia
# [27] = strain IV.3 (No 17), clade IV/Colombia
# [28] = strain IV.4 (No 18), clade IV/Colombia
# [29] = strain IV.5 (No 19), clade IV/Colombia
# [30] = strain IV.6 (No 20), clade IV/Colombia
# [31] = strain IV.7 (No 21), clade IV/Colombia
# [32] = strain IV.8 (No 22), clade IV/Colombia
# [33] = strain IV.9 (No 6), clade IV/Israel
Compound,"MIC [3, 12] [µg/mL]","MIC [3, 13] [µg/mL]","MIC [3, 14] [µg/mL]","MIC [3, 15] [µg/mL]","MIC [3, 16] [µg/mL]","MIC [3, 17] [µg/mL]","MIC [3, 18] [µg/mL]","MIC [3, 19] [µg/mL]","MIC [3, 20] [µg/mL]","MIC [3, 21] [µg/mL]","MIC [3, 22] [µg/mL]","MIC [3, 23] [µg/mL]","MIC [3, 24] [µg/mL]","MIC [3, 25] [µg/mL]","MIC [3, 26] [µg/mL]","MIC [3, 27] [µg/mL]","MIC [3, 28] [µg/mL]","MIC [3, 29] [µg/mL]","MIC [3, 30] [µg/mL]","MIC [3, 31] [µg/mL]",other results
C[C@@H]1[C@H](O)[C@@H](C)/C=C/C=C/C=C/C=C/C=C/C=C/C=C/[C@H](O[C@@H]2O[C@H](C)[C@@H](O)[C@H](N)[C@@H]2O)C[C@@H]2O[C@](O)(C[C@@H](O)C[C@@H](O)[C@H](O)CC[C@@H](O)C[C@@H](O)CC(=O)O[C@H]1C)C[C@H](O)[C@H]2C(=O)O [Amphotericin B],1,1,1,0.5,0.25,0.5,0.5,1,2,0.25,0.5,0.5,1,0.5,2,2,1,1,1,1,"MFC [1]: 19.2 µg/mL; geometric means of the minimum fungicidal concentrations [2]: about 12 μg/mL; MIC [3, 32]: 1 µg/mL; MIC [3, 33]: 0.5 µg/mL; MIC [4]: 1 µg/mL; MIC ([5]; strain 3315, clinical strain): 0.25 µg/mL; MIC ([5]; strain 3435, clinical strain): 0.5 µg/mL; area under the curve to infinity (AUC(0-∞)) [6]: 10330 ng·h/mL; elimination half-lives [6]: 18.15 h; geometric means of the minimum fungicidal concentration values compared to amcipatricin diascorbate [7]: lower; MIC ([8]; ATCC24905, strain ATCC 24905, ATCC strain): 0.25 µg/mL; MIC ([8]; strain 2109, clinical strain): 0.5 µg/mL; MIC ([8]; strain 2707, clinical strain): 0.25 µg/mL; MIC ([8]; strain 4280, clinical strain): 1 µg/mL; geometric means of the minimum fungicidal concentrations [9]: 12.53 µg/mL; geometric means of the minimum fungicidal concentration values compared to amcipatricin diascorbate [10]: lower; geometric means of the minimum fungicidal concentration values compared to amcipatricin diascorbate [11]: lower"
OC(Cn1cncn1)(Cn1cncn1)c1ccc(F)cc1F [Fluconazole],1020,1020,1020,4,32,1020,512,1020,4,32,32,32,32,32,128,128,128,128,128,1020,"MIC [3, 32]: 1020 µg/mL; MIC [3, 33]: 16 µg/mL"
